The record followed here is article PMC10122656, “Siglec-6 mediates the uptake of extracellular vesicles through a noncanonical glycolipid binding pocket” (Nature Communications, 2023).

“And” between values parts separate entries of the source, which are not always exact repeats. Equal values may be shown once.

The test system of test [1] is untransfected (UT) CHO cells. In words: Cell assay (liposome/EV binding, flow cytometry). It is filed as cell-based, Chinese Hamster. The following applies: for log10(MFI AF647) of GLL relative to log10(MFI AF647) of the same GLL against UT CHO cells (Fig. 2a): 3 mol% ganglioside liposomes, replicates. The method, then:
(§1) Stock lipids (DSPC, Cholesterol, PEG45–DSPE) solutions were prepared by solvating the lipids in chloroform. An appropriate volume of each lipid solution was transferred to a glass test tube to reach the desired mol% of the component. The chloroform was then removed under N2 gas to yield a lipid thin film. Once dry, 100 µL of DMSO was added to the lipid-containing test tube and then the functional lipids (ganglioside, AF647–PEG45–DSPE, Siglec ligand–PEG45–DSPE, pHrodo–PEG45–DSPE, NGL) was added from their respect DMSO stock solution. The lipid mixture was then stored at −80 °C until completely frozen at which point excess DMSO was removed via lyophilization. Dry lipids were then stored at −80 °C until they were extruded. Lipid suppliers can be found in Supplementary Table 4.
(§2) Dry lipids were then hydrated in 1 mL of PBS. The lipids were then sonicated in a bath sonicator in a cycle of 1 min on, 5 min off for a total of five cycles. Liposomes were then extruded using an Avanti mini extruder first using an 800 nm filter and then a 100 nm filter yielding liposomes that were 130 ± 35 nm (Supplementary Table 5) measured using a Malvern Panalytical Zetasizer Nano S. Liposomes were stored at 4 °C.
(§3) 200,000 cells/well were plated into a 96-well U-bottom microplate and centrifuged at 300 × g for 5 min. The cells were then resuspended in 50 µL of 50 µM liposome/50 µg/mL (protein concentration) of EV solution in DMEM F12 5% FBS and incubated at 37 °C for 30 min. Excess liposomes were then removed via centrifuged at 300 × g for 5 min followed by washing the cells with FACS solution. The cells were then resuspended in (1:250 V/V) anti-Siglec-flow buffer (1% V/V FBS, 500 µM, EDTA Hank’s Balanced Salt Solution pH 7.4), solution and left to rest on ice for 30 min. The cells were then centrifuged again at 300 × g for 5 min and the cells were resuspended in FACS buffer solution and were then ready for analysis by flow cytometry. Information regarding antibody clone, catalog number supplier, label isotype, and dilution can be found in Supplementary Table 6. The Siglec-positive cells were gated on for liposome-binding analysis (Supplementary Fig. 1b).
(§4) Flow cytometry measurements were collected on a 5-laser Fortessa X-20 (BD Bioscience). All the resulting data were analyzed using FlowJo (10.5.3) software (BD Biosciences).
In general terms: A flow cytometer gives signals particle by particle.

The next test deals with T1, Siglec-6-Fc WT (Homo sapiens, UniProt O43699).
T1 construct: the Siglecs as Fc chimeras; made in house; host or cells: WT CHO cells
Briefly: Ganglioside ELISA. It is filed as binding. The following applies: for ganglioside ELISA signal, Siglec-6 WT: Figure 2c, replicates; for ELISA recognition of adsorbed ganglioside by Siglec-6 (in words): ganglioside adsorbed to microplate, outside a bilayer. The method, then: (§5) Siglec-Fc constructs designed by Rodrigues et al.[30] were used in this work. Siglec-Fc constructs were expressed using WT CHO cells in cell culture media as described above with 1% HEPES. Cells incubated as described above for one-week post confluency. The supernatant was harvested and stored at 4 °C.
(§6) The purification was heavily inspired by Rodrigues et al.[30]. The purification of the Siglec-Fcs from supernatant began with Ni^2+ affinity chromatography using an AKTA FPLC equipped with a HisTrap Excel column (GE). The column was equilibrated with fifteen column volumes (CVs) of equilibrium buffer (500 mM NaCl, 20 mM NaPO4H2, pH 7.4). The Siglec-Fc containing supernatant was then loaded in its entirety onto the column. The column was then washed with fifteen CVs of wash buffer (500 mM NaCl, 30 mM imidazole, 20 mM NaPO4H2, pH 7.4). The Siglec-Fc was then eluted in 20 in 1 mL fractions with twenty CVs of elution buffer (500 mM NaCl, 500 mM imidazole, 20 mM NaPO4H2, pH 7.4). Fractions containing Siglec-Fc were compiled and then prepared for the next stage of purification by diluting the fractions 1:4 with buffer W (100 mM Tris–HCl, 150 mM NaCl, 1 mM EDTA, pH 8.0). A Strep-Tactin column (IBA life sciences) was washed with fifteen CVs of buffer W. The Siglec-Fc-buffer W solution was then loaded in its entirety onto the column. The bound Siglec-Fc was then washed with fifteen CVs of buffer W. Siglec-Fc was eluted from the column with 15 column volumes of buffer E (100 mM Tris–HCl, 150 mM NaCl, 1 mM EDTA, 10 mM d-Desthiobiotin, pH 8.0). Fractions containing Siglec-Fc were pooled and dialyzed against PBS to remove any d-Desthiobiotin. After dialysis, Siglec-Fcs were concentrated using an ultra-centrifugal device (30 kDa MWCO) and aliquoted into 5 µg aliquots, and frozen. The Siglec-Fcs were then lyophilized overnight, and the lyophilized Siglec-Fcs were stored at −20 °C.
(§7) Our ELISA approach was carried out similarly to previous work by Rapoport[12] and Yamakawa[44]. Ganglioside ethanol solutions (10 µM) were prepared and then transferred in 50 µL increments to a 96-well microplate. The ethanol was removed by drying the plates overnight at room temperature. The plates were then washed with PBS, dried, and then blocked with 5% (m/V) BSA PBS for 1 h. The plates were then washed with PBS and then 2 µg/mL Siglec-Fc precomplexed to Strep-Tactin (2 Siglec-Fc:1 Strep-Tactin monomer) horse radish peroxidase was added to the microplate. The complex was incubated with the plate at room temperature for 2 h. The unbound complexes were then removed by washing in PBS and the plate was developed with Sera care TMB solution. The amount of binding was then quantified by using the background (microplate well with no ligand) subtracted absorbance at 450 nm using a Molecular Devices SpectraMAX ® iD5.
On the technique in general: In an ELISA, binding on a coated surface is turned into a signal by an enzyme label.

Another test addresses T2, WT Siglec-1 CHO cells (Homo sapiens, UniProt Q9BZZ2).
T2 construct: expressed in transfected cells
Briefly: Cell assay (liposome/EV binding, flow cytometry). The following applies: for Binding of liposomes with increasing ganglioside content against Siglec-1 CHO cells (Fig. 1c) / log10(MFI AF647) of GLL relative to log10(MFI AF647) of the same GLL against UT CHO cells (Fig. 2a): replicates; for log10(MFI AF647) of GLL relative to log10(MFI AF647) of the same GLL against UT CHO cells (Fig. 2a): Sig-1 WT, 3 mol% ganglioside liposomes. Also on record: GM1 liposome binding to Siglec-1 CHO cells, flow cytometry (Fig. 1b) / Binding of liposomes with increasing ganglioside content against Siglec-1 CHO cells (Fig. 1c) / Liposome binding to Siglec-1-expressing CHO cells in the cell assay (Fig. 1f): unit not given here. In kind it is cell-based. The method, then: as §1, §2, §3, §4

A further test has as its target T3, Siglec-7-Fc R124A (Homo sapiens, UniProt Q9Y286, R124A).
T3 construct: the Siglecs as Fc chimeras; made in house; host or cells: WT CHO cells
Briefly: Ganglioside ELISA. It is filed as binding. The following applies: Figure 2c, replicates. How it is done: as §5, §6, §7

The target of the next test is T4, R122A Siglec-6-Fc (Homo sapiens, UniProt O43699, R122A).
T4 construct: the Siglecs as Fc chimeras; made in house; host or cells: WT CHO cells
Briefly: Ganglioside ELISA. It is filed as binding. The following applies: Figure 2c, replicates. The method, then: as §5, §6, §7

In the next test the target is T5, Siglec-7-Fc WT (Homo sapiens, UniProt Q9Y286).
T5 construct: the Siglecs as Fc chimeras; made in house; host or cells: WT CHO cells
In words: Ganglioside ELISA. In kind it is binding. As to conditions: Figure 2c, replicates. The method, then:
as §5, §6, §7

The target of another test is Siglec-1-Fc WT (Homo sapiens, UniProt Q9BZZ2). Briefly: Ganglioside ELISA. In kind it is binding. The following applies: Figure 2c, replicates. The method, then: as §5, §6, §7
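Wherever liposome binding, fluorescence signal (replicates) is given: AF647 fluorescence intensity from 0.1 mol% AF647–PEG45–DSPE in liposomes.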

T2 sequence (Q9BZZ2 20-1709): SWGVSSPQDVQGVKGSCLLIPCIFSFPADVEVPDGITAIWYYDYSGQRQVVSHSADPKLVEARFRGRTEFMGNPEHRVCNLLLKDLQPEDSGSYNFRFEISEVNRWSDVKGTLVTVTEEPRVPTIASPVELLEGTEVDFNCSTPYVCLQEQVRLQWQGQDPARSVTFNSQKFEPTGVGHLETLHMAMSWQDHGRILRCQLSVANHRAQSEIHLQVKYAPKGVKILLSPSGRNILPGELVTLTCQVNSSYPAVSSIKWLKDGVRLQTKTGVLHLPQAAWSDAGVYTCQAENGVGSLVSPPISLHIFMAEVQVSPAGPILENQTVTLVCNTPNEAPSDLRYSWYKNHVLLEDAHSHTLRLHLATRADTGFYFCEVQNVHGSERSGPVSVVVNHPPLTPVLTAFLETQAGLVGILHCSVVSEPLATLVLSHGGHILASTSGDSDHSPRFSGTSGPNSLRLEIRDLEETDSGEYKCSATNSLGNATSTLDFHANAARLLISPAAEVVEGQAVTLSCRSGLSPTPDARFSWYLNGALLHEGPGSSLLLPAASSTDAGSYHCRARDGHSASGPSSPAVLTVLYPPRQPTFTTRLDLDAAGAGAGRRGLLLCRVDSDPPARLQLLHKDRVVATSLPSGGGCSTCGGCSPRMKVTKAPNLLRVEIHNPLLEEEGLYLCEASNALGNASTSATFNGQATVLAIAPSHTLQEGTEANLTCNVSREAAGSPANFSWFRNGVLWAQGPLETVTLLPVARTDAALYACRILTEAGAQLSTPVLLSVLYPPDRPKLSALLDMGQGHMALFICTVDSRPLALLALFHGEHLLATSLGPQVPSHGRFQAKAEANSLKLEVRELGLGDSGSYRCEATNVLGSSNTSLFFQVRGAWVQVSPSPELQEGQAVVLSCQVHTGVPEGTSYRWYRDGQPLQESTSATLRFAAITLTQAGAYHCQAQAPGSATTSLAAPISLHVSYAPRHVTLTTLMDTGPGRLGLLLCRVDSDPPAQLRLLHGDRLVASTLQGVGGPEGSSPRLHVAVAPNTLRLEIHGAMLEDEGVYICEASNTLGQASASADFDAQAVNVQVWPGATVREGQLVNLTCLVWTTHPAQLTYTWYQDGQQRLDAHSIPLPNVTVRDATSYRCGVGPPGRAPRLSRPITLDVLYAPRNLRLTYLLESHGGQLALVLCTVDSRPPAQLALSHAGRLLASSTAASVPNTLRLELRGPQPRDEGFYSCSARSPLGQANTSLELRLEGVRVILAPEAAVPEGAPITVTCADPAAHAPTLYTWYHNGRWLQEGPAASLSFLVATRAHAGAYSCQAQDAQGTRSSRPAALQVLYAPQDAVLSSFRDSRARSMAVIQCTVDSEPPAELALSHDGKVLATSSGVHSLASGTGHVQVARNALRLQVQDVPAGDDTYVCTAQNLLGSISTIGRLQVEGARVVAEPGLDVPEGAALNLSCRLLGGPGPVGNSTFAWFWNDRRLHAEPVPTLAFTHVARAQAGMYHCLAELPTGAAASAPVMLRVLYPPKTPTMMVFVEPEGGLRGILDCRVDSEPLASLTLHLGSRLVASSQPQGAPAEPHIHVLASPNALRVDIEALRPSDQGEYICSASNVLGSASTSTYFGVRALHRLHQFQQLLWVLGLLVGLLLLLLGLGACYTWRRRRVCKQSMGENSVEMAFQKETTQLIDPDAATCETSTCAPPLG
T3 sequence (Q9Y286 19-353 R124A limits assumed): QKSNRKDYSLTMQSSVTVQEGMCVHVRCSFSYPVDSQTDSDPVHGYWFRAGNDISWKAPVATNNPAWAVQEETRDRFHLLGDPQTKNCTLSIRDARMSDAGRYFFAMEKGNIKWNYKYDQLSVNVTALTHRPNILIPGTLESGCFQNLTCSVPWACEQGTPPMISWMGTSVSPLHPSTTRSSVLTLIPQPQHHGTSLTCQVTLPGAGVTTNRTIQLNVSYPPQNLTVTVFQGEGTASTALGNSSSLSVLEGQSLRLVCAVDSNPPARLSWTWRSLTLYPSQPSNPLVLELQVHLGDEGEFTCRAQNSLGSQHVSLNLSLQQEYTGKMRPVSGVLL
T5 sequence (Q9Y286 19-353 limits assumed): as the sequence (Q9Y286 19-353 R124A limits assumed) above, with A106R counted along it
T4 sequence (O43699 27-347 R122A limits assumed): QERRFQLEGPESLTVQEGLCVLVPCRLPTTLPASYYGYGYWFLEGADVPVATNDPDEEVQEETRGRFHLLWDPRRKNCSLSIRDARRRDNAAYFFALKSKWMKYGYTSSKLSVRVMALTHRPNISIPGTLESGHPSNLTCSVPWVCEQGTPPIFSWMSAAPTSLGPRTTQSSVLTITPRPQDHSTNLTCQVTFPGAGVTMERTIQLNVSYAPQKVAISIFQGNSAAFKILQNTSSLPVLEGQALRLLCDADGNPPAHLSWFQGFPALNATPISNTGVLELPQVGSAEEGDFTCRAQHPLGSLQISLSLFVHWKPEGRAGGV
T1 sequence (O43699 27-347 limits assumed): as the sequence (O43699 27-347 R122A limits assumed) above, with A96R counted along it
Siglec-1-Fc WT, sequence (Q9BZZ2 20-136 limits assumed): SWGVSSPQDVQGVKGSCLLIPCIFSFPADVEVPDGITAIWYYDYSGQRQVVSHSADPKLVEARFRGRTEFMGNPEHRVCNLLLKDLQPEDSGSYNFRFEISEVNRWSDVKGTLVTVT

As for `CCCCCCCCCCCCCCCCOCC(COCCCCCCCCCCCCCCCC)OCc1cn(CCO[C@@H]2O[C@H](CO)[C@@H](O[C@@H]3O[C@H](CO)[C@H](O)[C@H](O[C@]4(C(=O)O)C[C@H](O)[C@@H](NC(C)=O)[C@H]([C@H](O)[C@H](O)CO)O4)[C@H]3O)[C@H](O)[C@H]2O)nn1` [GM3-DAG], the “liposome binding, fluorescence signal (replicates)” value is 267 and 269 and 241 and 218 in test [1] (sheet Figure S22b, CHO); 298 and 293 and 301 and 291 in test [1] (sheet Figure S26a, 3% GM3-DAG liposomes, Untrans.); 268 and 273 and 248 and 260 in test [1] (sheet Figure S28b, 3% GM3-DAG liposomes, UT); 38 and 35 and 41 in test [1] (sheet Figure S26d, CHO).

Take `CCCCCCCCCCCCCCCCOCC(COCCCCCCCCCCCCCCCC)OCc1cn(CCO[C@@H]2O[C@H](CO)[C@@H](O[C@@H]3O[C@H](CO)[C@H](O)[C@H](O[C@]4(C(=O)O)C[C@H](O)[C@@H](NC(C)=O)[C@H]([C@H](O)[C@H](O)CO)O4)[C@H]3O)[C@H](O)[C@H]2O)nn1` [nGL 5]: the “fold difference in binding to Siglec-6 between 5 and GM3” value on Siglec-6-Fc WT (by ELISA) was found to be 1.5 fold.

Take GD1a: the “Binding of liposomes with increasing ganglioside content against Siglec-1 CHO cells (Fig. 1c)” value is -0.01 at WT Siglec-1 CHO cells (0.000187 Ligand/nm2); 0.01 at WT Siglec-1 CHO cells (0.00933 Ligand/nm2); 0.5 and 0.49 and 0.48 and 0.51 on WT Siglec-1 CHO cells (0.0187 Ligand/nm2); 0.26 (2×) and 0.28 and 0.3 on WT Siglec-1 CHO cells (0.0933 Ligand/nm2); 0.19 (3×) and 0.2 on WT Siglec-1 CHO cells (0.187 Ligand/nm2); 0.1 (2×) and 0.09 (2×) on WT Siglec-1 CHO cells (0.373 Ligand/nm2). Moreover, the “log10(MFI AF647) of GLL relative to log10(MFI AF647) of the same GLL against UT CHO cells (Fig. 2a)” value at WT Siglec-1 CHO cells was 0.86 (2×) and 0.89 and 0.85; in test [1] (UT), 0.01 and -0.05 and 0 and 0.04. Moreover, the “ganglioside content threshold above which GLL binding to Siglec-1 CHO cells decreased” value on WT Siglec-1 CHO cells (ganglioside titrated in GLLs) was 1–3 mol%. In addition, the “ganglioside ELISA signal, Siglec-7 R” value at Siglec-7-Fc R124A was 0.05 and 0 and -0.01. In addition, the “ganglioside ELISA signal, Siglec-6 R” value on R122A Siglec-6-Fc was 0.08 and 0.06 and 0.05. Further, the “ganglioside ELISA signal, Siglec-6 WT” value at Siglec-6-Fc WT is -0.08 and 0.02 and 0.01 and -0.06. In addition, the “ELISA recognition of adsorbed ganglioside by Siglec-6 (in words)” value at Siglec-6-Fc WT is given as “did not recognize”. The “ganglioside ELISA signal, Siglec-7 WT” value on Siglec-7-Fc WT is 0.27 and 0.32 and 0.24 and 0.37. Besides, the “ganglioside ELISA signal, Siglec-1 WT” value at Siglec-1-Fc WT was 0.75 and 1.01 and 0.87.

Take GD1b: the “log10(MFI AF647) of GLL relative to log10(MFI AF647) of the same GLL against UT CHO cells (Fig. 2a)” value on WT Siglec-1 CHO cells was 0.7 and 0.71 (2×) and 0.63; in test [1] (UT), 0.01 (2×) and -0.01 (2×). In addition, the “ganglioside ELISA signal, Siglec-7 R” value on Siglec-7-Fc R124A is 0 and -0.01 and -0.02. For the same compound, the “ganglioside ELISA signal, Siglec-6 R” value at R122A Siglec-6-Fc is 0.07 and 0.09 and 0.06 and 0.08. Further, on Siglec-6-Fc WT, the “ganglioside ELISA signal, Siglec-6 WT” value is -0.04 and 0.01. Moreover, the “ganglioside ELISA signal, Siglec-7 WT” value on Siglec-7-Fc WT is 0.41 and 0.39 and 0.38. The “ganglioside ELISA signal, Siglec-1 WT” value at Siglec-1-Fc WT was 0.52 and 0.66 and 0.64 and 0.62.

On to GD3, for which the “log10(MFI AF647) of GLL relative to log10(MFI AF647) of the same GLL against UT CHO cells (Fig. 2a)” value at WT Siglec-1 CHO cells is 0.41 (3×) and 0.45. The “log10(MFI AF647) of GLL relative to log10(MFI AF647) of the same GLL against UT CHO cells (Fig. 2a)” value in test [1] (UT) was 0.01 (2×) and -0.01 (2×). Moreover, the “ganglioside ELISA signal, Siglec-7 R” value at Siglec-7-Fc R124A was 0.01 and -0.01 and -0.02. For the same compound, the “ganglioside ELISA signal, Siglec-6 R” value on R122A Siglec-6-Fc is 0.22 and 0.2. Also, at Siglec-6-Fc WT, the “ganglioside ELISA signal, Siglec-6 WT” value was 0.04 and 0.09 and 0.03; the “ELISA recognition of adsorbed ganglioside by Siglec-6 (in words)” value is on record as “did not recognize”. Besides, the “ganglioside ELISA signal, Siglec-7 WT” value at Siglec-7-Fc WT is 0.74 and 0.73 and 0.7 and 0.66. For the same compound, the “ganglioside ELISA signal, Siglec-1 WT” value at Siglec-1-Fc WT was 0.76 and 0.85 and 0.8 and 0.82.
